Assay results reported in the NIST ThermoML archive (doi:10.1021/je3010535).
Several values for one entry are separate records, joined by “and”; a condition that tells them apart may be missing. Equal entries are not always repeated.

Tests used:
[1] = Henry's Law constant (molality scale); of the first substance listed, at infinite dilution; mn = molality of the nth substance listed, in mol/kg; settings: Liquid, Chromatography, m1 = 0
[2] = Henry's Law constant (molality scale); of the first substance listed, at infinite dilution; xn = mol fraction of the nth substance listed; settings: Liquid, Chromatography, x1 = 0

Clc1ccc(Cl)cc1 [1,4-dichlorobenzene] + O
[1]
Settings	Henry's Law constant
274.15 K	52.8 kPa·kg/mol
294.65 K	136 kPa·kg/mol and 149 kPa·kg/mol
296.15 K	160 kPa·kg/mol
310.15 K	263 kPa·kg/mol
313.15 K	476 kPa·kg/mol
320.15 K	451 kPa·kg/mol
326.15 K	804 kPa·kg/mol
331.15 K	686 kPa·kg/mol

C=Cc1ccccc1 [styrene] + O
[1]
Settings	Henry's Law constant [kPa·kg/mol]
274.15 K	62.4
294.65 K	196
296.15 K	224
310.15 K	382
313.15 K	507
326.15 K	925
331.15 K	972

ClC(Br)Br [chlorodibromomethane] + O
[1]
Settings	Henry's Law constant
274.15 K	22.7 kPa·kg/mol
294.65 K	80.5 kPa·kg/mol and 82.2 kPa·kg/mol
296.15 K	85.7 kPa·kg/mol
310.15 K	179 kPa·kg/mol
320.15 K	327 kPa·kg/mol
331.15 K	536 kPa·kg/mol

Cl/C=C\CCl [(Z)-1,3-dichloro-1-propene] + O
[1]
Settings	Henry's Law constant
274.15 K	25.3 kPa·kg/mol
294.65 K	87.5 kPa·kg/mol and 89.1 kPa·kg/mol
296.15 K	94.4 kPa·kg/mol
310.15 K	202 kPa·kg/mol
320.15 K	386 kPa·kg/mol
331.15 K	657 kPa·kg/mol

CC(C)(C)c1ccccc1 [(1,1-dimethylethyl)benzene] + O
[1]
Settings	Henry's Law constant
274.15 K	189 kPa·kg/mol
294.65 K	448 kPa·kg/mol and 554 kPa·kg/mol
296.15 K	562 kPa·kg/mol
310.15 K	1020 kPa·kg/mol
313.15 K	2070 kPa·kg/mol
326.15 K	3330 kPa·kg/mol
331.15 K	2160 kPa·kg/mol

CCCCC(C)=O [2-hexanone] + O
[1]
Settings	Henry's Law constant
274.15 K	0.551 kPa·kg/mol
294.65 K	4.89 kPa·kg/mol and 5.91 kPa·kg/mol
296.15 K	7.07 kPa·kg/mol
310.15 K	17.9 kPa·kg/mol
320.15 K	48.2 kPa·kg/mol
331.15 K	122 kPa·kg/mol
333.15 K	136 kPa·kg/mol

BrCBr [dibromomethane] + O
[2]
Settings	Henry's Law constant
274.15 K	24 kPa·kg/mol
294.65 K	67.5 kPa·kg/mol and 64.7 kPa·kg/mol
296.15 K	72.9 kPa·kg/mol
310.15 K	154 kPa·kg/mol
320.15 K	278 kPa·kg/mol
331.15 K	444 kPa·kg/mol

ClC(Cl)Br [bromodichloromethane] + O
[2]
Settings	Henry's Law constant
274.15 K	60.5 kPa·kg/mol
294.65 K	165 kPa·kg/mol and 162 kPa·kg/mol
296.15 K	172 kPa·kg/mol
310.15 K	347 kPa·kg/mol
331.15 K	973 kPa·kg/mol

Cc1ccc(Cl)cc1 [4-chlorotoluene] + O
[2]
Settings	Henry's Law constant [kPa·kg/mol]
274.15 K	85.6
296.15 K	232
310.15 K	224
313.15 K	591
326.15 K	1240
331.15 K	888

COC(C)(C)C [2-methoxy-2-methylpropane] + O
[2]
Settings	Henry's Law constant [kPa·kg/mol]
274.15 K	5.5
296.15 K	58
310.15 K	59
320.15 K	368
331.15 K	1650

ClC(Cl)(Cl)Cl [tetrachloromethane] + O
[2]
Settings	Henry's Law constant
274.15 K	696 kPa·kg/mol
294.65 K	1770 kPa·kg/mol and 1580 kPa·kg/mol
296.15 K	1690 kPa·kg/mol
313.15 K	4230 kPa·kg/mol
326.15 K	7590 kPa·kg/mol

Cc1ccc2ccccc2c1 [2-methylnaphthalene] + O
[2]
Settings	Henry's Law constant
274.15 K	4.91 kPa·kg/mol
294.65 K	31.4 kPa·kg/mol and 16.6 kPa·kg/mol
296.15 K	35 kPa·kg/mol
310.15 K	84.4 kPa·kg/mol
320.15 K	106 kPa·kg/mol
331.15 K	169 kPa·kg/mol
333.15 K	166 kPa·kg/mol

Cc1ccccc1Cl [2-chlorotoluene] + O
[2]
Settings	Henry's Law constant
274.15 K	90.4 kPa·kg/mol
294.65 K	248 kPa·kg/mol and 316 kPa·kg/mol
296.15 K	356 kPa·kg/mol
310.15 K	503 kPa·kg/mol
313.15 K	890 kPa·kg/mol
320.15 K	533 kPa·kg/mol
326.15 K	1280 kPa·kg/mol
331.15 K	1040 kPa·kg/mol

CC#N [acetonitrile] + O
[2]
Settings	Henry's Law constant
274.15 K	0.21 kPa·kg/mol
294.65 K	1.41 kPa·kg/mol and 1.55 kPa·kg/mol
296.15 K	1.7 kPa·kg/mol
310.15 K	5.36 kPa·kg/mol
320.15 K	12.6 kPa·kg/mol
331.15 K	6.17 kPa·kg/mol

C#CCO [2-propyn-1-ol] + O
[2]
Settings	Henry's Law constant [kPa·kg/mol]
273.25 K	0.039
298.15 K	0.255
311.15 K	0.754
332.15 K	3.71

BrC(Br)Br [tribromomethane] + O
[2]
Settings	Henry's Law constant
274.15 K	7.47 kPa·kg/mol
294.65 K	46.4 kPa·kg/mol and 29.9 kPa·kg/mol
296.15 K	50.9 kPa·kg/mol
310.15 K	120 kPa·kg/mol
320.15 K	200 kPa·kg/mol
331.15 K	328 kPa·kg/mol

C=CCCl [3-chloro-1-propene] + O
[2]
Settings	Henry's Law constant [kPa·kg/mol]
274.15 K	255
313.15 K	1350
326.15 K	3170

C=CC#N [acrylonitrile] + O
[2]
Settings	Henry's Law constant
274.15 K	1.24 kPa·kg/mol
294.65 K	5.23 kPa·kg/mol and 8.07 kPa·kg/mol
296.15 K	9.19 kPa·kg/mol
310.15 K	25.3 kPa·kg/mol
320.15 K	40 kPa·kg/mol
331.15 K	73.9 kPa·kg/mol
333.15 K	97.8 kPa·kg/mol
